Measured values published in patent US8273754B2, “Substituted 1H-pyrazolo[3,4-D]pyrimidine-6-amine compounds” (ArQule, Inc., priority 2008, dated 2012).
Like-named read-outs stand apart in the source and are kept apart here.

System: cancer cells
Test: MTS cell growth inhibition assay (72 hours)
Assay type: cell-based
How it was run: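 Cells in DMEM with 1% FBS, seeded 18 h, then compound-treated 72 h at 37 °C. Viability by MTS/PMS for 4 h, formazan absorbance at 492 nm; IC50 taken as concentration giving 50% absorbance drop, activity banded by percent inhibition.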

[1] = Homo sapiens, DLD-1, 72 h, DLD-1 cells, read-out: DLD-1 MTS 72 hr at 10 μM
[2] = Homo sapiens, KATO III, 72 h, KATO III cells, read-out: KATO III MTS 72 hr at 10 μM
[3] = Homo sapiens, MDA-MB-231, 72 h, MDA-MB-231 cells, read-out: MDA-MB-231 MTS 72 hr at 10 μM
[4] = Homo sapiens, NCI-H1299, 72 h, NCI-H1299 cells, read-out: NCI-H1299 MTS 72 hr at 10 μM
[5] = PaCa-2, 72 h, PACA-2 cells, read-out: PACA-2 MTS 72 hr at 10 μM

Measured: inhibition at 10 µM

Nc1nc(NC2Cc3ccccc3N(S(=O)(=O)c3ccc4ccccc4c3)C2)c2cn[nH]c2n1 (stereo not drawn) [Compound 34, N4-(1-(naphthalen-2-ylsulfonyl)-1,2,3,4-tetrahydroquinolin-3-yl)-1H-pyrazolo[3,4-d]pyrimidine-4,6-diamine]
< 50%: [1] | [2] | [3] | [4] | [5]

CC(C)(C)c1ccc(OCC(=O)N2CC(Nc3nc(N)nc4[nH]ncc34)Cc3ccccc32)cc1 (stereo not drawn) [Compound 97, 1-(3-(6-amino-1H-pyrazolo[3,4-d]pyrimidin-4-ylamino)-3,4-dihydroquinolin-1(2H)-yl)-2-(4-tert-butylphenoxy)ethanone]
50 to 79%: [1] | [2] | [3]
< 50%: [4] | [5]

CCC(C)(C)c1ccc(S(=O)(=O)N2CC(Nc3nc(N)nc4[nH]ncc34)Cc3ccccc32)cc1 (stereo not drawn) [Compound 61, N4-(1-(4-tert-pentylphenylsulfonyl)-1,2,3,4-tetrahydroquinolin-3-yl)-1H-pyrazolo[3,4-d]pyrimidine-4,6-diamine]
< 50%: [1] | [2] | [3] | [4] | [5]

Nc1nc(NC2Cc3ccccc3N(Cc3c(F)cccc3F)C2)c2cn[nH]c2n1 (stereo not drawn) [Compound 150, N4-[1-(2,6-difluorobenzyl)-1,2,3,4-tetrahydroquinolin-3-yl]-1H-pyrazolo[3,4-d]pyrimidine-4,6-diamine]
50 to 79%: [2]
< 50%: [3] | [4]
> 79%: [1] | [5]

N#Cc1ccc(S(=O)(=O)N2CC(Nc3nc(N)nc4[nH]ncc34)Cc3ccccc32)cc1 (stereo not drawn) [Compound 30, 4-(3-(6-amino-1H-pyrazolo[3,4-d]pyrimidin-4-ylamino)-3,4-dihydroquinolin-1(2H)-ylsulfonyl)benzonitrile]
< 50%: [1] | [2] | [3] | [4] | [5]

Nc1nc(NC2Cc3ccccc3N(C(=O)C3CC3)C2)c2cn[nH]c2n1 (stereo not drawn) [Compound 80, (3-(6-amino-1H-pyrazolo[3,4-d]pyrimidin-4-ylamino)-3,4-dihydroquinolin-1(2H)-yl)(cyclopropyl)methanone]
< 50%: [1] | [2] | [3] | [4] | [5]

CC1(C)CCc2cc(CN3CC(Nc4nc(N)nc5[nH]ncc45)Cc4ccccc43)ccc2O1 (stereo not drawn) [Compound 147, N4-{1-[(2,2-dimethyl-3,4-dihydro-2H-chromen-6-yl)methyl]-1,2,3,4-tetrahydroquinolin-3-yl}-1H-pyrazolo[3,4-d]pyrimidine-4,6-diamine]
> 79%: [1] | [2] | [5]
50 to 79%: [3]
< 50%: [4]

COc1cc(F)ccc1CN1CC(Nc2nc(N)nc3[nH]ncc23)Cc2ccccc21 (stereo not drawn) [Compound 141, N4-[1-(4-fluoro-2-methoxybenzyl)-1,2,3,4-tetrahydroquinolin-3-yl]-1H-pyrazolo[3,4-d]pyrimidine-4,6-diamine]
> 79%: [1] | [2] | [3] | [4] | [5]

Nc1nc(NC2Cc3ccccc3N(S(=O)(=O)c3cccc(NC(=O)Nc4ccc5c(c4)Cc4ccccc4-5)c3)C2)c2cn[nH]c2n1 (stereo not drawn) [Compound 202, 1-[3-({3-[(6-amino-1H-pyrazolo[3,4-d]pyrimidin-4-yl)amino]-3,4-dihydroquinolin-1(2H)-yl}sulfonyl)phenyl]-3-(9H-fluoren-2-yl)urea]
> 79%: [1] | [2] | [3] | [5]
50 to 79%: [4]

Nc1nc(NC2Cc3ccccc3N(C(=O)c3ccc(F)cc3F)C2)c2cn[nH]c2n1 (stereo not drawn) [Compound 86, (3-(6-amino-1H-pyrazolo[3,4-d]pyrimidin-4-ylamino)-3,4-dihydroquinolin-1(2H)-yl)(2,4-difluorophenyl)methanone]
< 50%: [1] | [2] | [3] | [4] | [5]

Nc1nc(NC2Cc3ccccc3N(Cc3ccc(-c4cccs4)cc3)C2)c2cn[nH]c2n1 (stereo not drawn) [Compound 136, N4-{1-[4-(2-thienyl)benzyl]-1,2,3,4-tetrahydroquinolin-3-yl}-1H-pyrazolo[3,4-d]pyrimidine-4,6-diamine]
< 50%: [3] | [4] | [5]
> 79%: [1] | [2]

Nc1nc(NC2CCN(S(=O)(=O)c3ccc(C(F)(F)F)cc3)c3ccccc3C2)c2cn[nH]c2n1 (stereo not drawn) [Compound 186, N4-(1-{[4-(trifluoromethyl)phenyl]sulfonyl}-2,3,4,5-tetrahydro-1H-1-benzazepin-4-yl)-1H-pyrazolo[3,4-d]pyrimidine-4,6-diamine]
< 50%: [1] | [2] | [3] | [4] | [5]

Nc1nc(NC2Cc3ccccc3N(S(=O)(=O)c3ccc(-c4ccc(Cl)cc4)cc3)C2)c2cn[nH]c2n1 (stereo not drawn) [Compound 75, N4-(1-(4′-chlorobiphenyl-4-ylsulfonyl)-1,2,3,4-tetrahydroquinolin-3-yl)-1H-pyrazolo[3,4-d]pyrimidine-4,6-diamine]
50 to 79%: [4]
> 79%: [1] | [2] | [3] | [5]

Nc1nc(NC2CCN(S(=O)(=O)c3ccc(F)c(F)c3)c3ccccc3C2)c2cn[nH]c2n1 (stereo not drawn) [Compound 182, N4-{1-[(3,4-difluorophenyl)sulfonyl]-2,3,4,5-tetrahydro-1H-1-benzazepin-4-yl}-1H-pyrazolo[3,4-d]pyrimidine-4,6-diamine]
< 50%: [1] | [2] | [3] | [4] | [5]

Nc1nc(NC2Cc3ccccc3N(S(=O)(=O)c3ccc(Cl)cc3)C2)c2cn[nH]c2n1 (stereo not drawn) [Compound 35, N4-(1-(4-chlorophenylsulfonyl)-1,2,3,4-tetrahydroquinolin-3-yl)-1H-pyrazolo[3,4-d]pyrimidine-4,6-diamine]
< 50%: [1] | [2] | [3] | [4] | [5]

Nc1nc(NC2Cc3ccccc3N(S(=O)(=O)c3cccc(NC(=O)Nc4ccc(F)c(F)c4)c3)C2)c2cn[nH]c2n1 (stereo not drawn) [Compound 207, 1-[3-({3-[(6-amino-1H-pyrazolo[3,4-d]pyrimidin-4-yl)amino]-3,4-dihydroquinolin-1(2H)-yl}sulfonyl)phenyl]-3-(3,4-difluorophenyl)urea]
> 79%: [1] | [2] | [3] | [4] | [5]

Nc1nc(NC2Cc3ccccc3N(S(=O)(=O)c3ccc(NC(=O)NC4CCCc5ccccc54)cc3)C2)c2cn[nH]c2n1 (stereo not drawn) [Compound 192, 1-[4-({3-[(6-amino-1H-pyrazolo[3,4-d]pyrimidin-4-yl)amino]-3,4-dihydroquinolin-1(2H)-yl}sulfonyl)phenyl]-3-(1,2,3,4-tetrahydronaphthalen-1-yl)urea]
> 79%: [1] | [2] | [3] | [4] | [5]

Cc1cccc(S(=O)(=O)N2CCC(Nc3nc(N)nc4[nH]ncc34)Cc3ccccc32)c1 (stereo not drawn) [Compound 168, N4-{1-[(3-methylphenyl)sulfonyl]-2,3,4,5-tetrahydro-1H-1-benzazepin-4-yl}-1H-pyrazolo[3,4-d]pyrimidine-4,6-diamine]
< 50%: [1] | [2] | [3] | [4] | [5]

Cc1ccccc1NC(=O)Nc1cccc(S(=O)(=O)N2CC(Nc3nc(N)nc4[nH]ncc34)Cc3ccccc32)c1 (stereo not drawn) [Compound 213, 1-[3-({3-[(6-amino-1H-pyrazolo[3,4-d]pyrimidin-4-yl)amino]-3,4-dihydroquinolin-1(2H)-yl}sulfonyl)phenyl]-3-(2-methylphenyl)urea]
< 50%: [1] | [3] | [4]
50 to 79%: [5]
> 79%: [2]

COc1cccc(S(=O)(=O)N2CCC(Nc3nc(N)nc4[nH]ncc34)Cc3ccccc32)c1 (stereo not drawn) [Compound 175, N4-{1-[(3-methoxyphenyl)sulfonyl]-2,3,4,5-tetrahydro-1H-1-benzazepin-4-yl}-1H-pyrazolo[3,4-d]pyrimidine-4,6-diamine]
< 50%: [1] | [2] | [3] | [4] | [5]

Cc1ccc(Cl)c(NC(=O)Nc2cccc(S(=O)(=O)N3CC(Nc4nc(N)nc5[nH]ncc45)Cc4ccccc43)c2)c1 (stereo not drawn) [Compound 218, 1-[3-({3-[(6-amino-1H-pyrazolo[3,4-d]pyrimidin-4-yl)amino]-3,4-dihydroquinolin-1(2H)-yl}sulfonyl)phenyl]-3-(2-chloro-5-methylphenyl)urea]
> 79%: [1] | [2] | [3] | [4] | [5]
